How the values were obtained:
Assay in all cases: Kinase panel (140 human kinases)
Format in all cases: biochemical
ASK1 = ASK1 (Homo sapiens, UniProt Q99683)
Method: (§1) BAY-3827 and BAY-974 were assayed against a 140-human kinase panel at 0.1 μM and at 1 μM (BAY-3827) concentration in a [γ-^33P] ATP–based radioactive filter binding assay ([31], [65]) setup in duplicates with reported mean remaining kinase percentage activity alongside SD (table S1). Assays were performed at either 5, 20, or 50 μM ATP to be at or below the Michaelis constant for ATP for each enzyme and conducted by the services offered by the International Centre for Kinase Profiling at MRC Protein Phosphorylation and Ubiquitylation Unit, University of Dundee (https://www.kinase-screen.mrc.ac.uk/services/premier-screen).

BTK = BTK (Homo sapiens, UniProt Q06187)
Method: as §1

CDK2-Cyclin A = CDK2-Cyclin A (Homo sapiens, UniProt P24941)
Method: as §1

CHK1 = CHK1 (Homo sapiens, UniProt O14757)
Method: as §1

CHK2 = CHK2 (Homo sapiens, UniProt O96017)
Method: as §1

CK2 = CK2 (Homo sapiens, UniProt P68400)
Method: as §1

DYRK3 = DYRK3 (Homo sapiens, UniProt O43781)
Method: as §1

EF2K = EF2K (Homo sapiens, UniProt O00418)
Method: as §1

EPH-A2 = EPH-A2 (Homo sapiens, UniProt P29317)
Method: as §1

EPH-A4 = EPH-A4 (Homo sapiens, UniProt P54764)
Method: as §1

EPH-B1 = EPH-B1 (Homo sapiens, UniProt P54762)
Method: as §1

ERK5 = ERK5 (Homo sapiens, UniProt Q13164)
Method: as §1

FGF-R1 = FGF-R1 (Homo sapiens, UniProt P11362)
Method: as §1

GSK3b = GSK3b (Homo sapiens, UniProt P49841)
Method: as §1

HIPK3 = HIPK3 (Homo sapiens, UniProt Q9H422)
Method: as §1

IR = IR (Homo sapiens, UniProt P06213)
Method: as §1

IRAK4 = molecular target: T1, IRAK4 (Homo sapiens, UniProt Q9NWZ3)
T1 sequence (Q9NWZ3 1-460): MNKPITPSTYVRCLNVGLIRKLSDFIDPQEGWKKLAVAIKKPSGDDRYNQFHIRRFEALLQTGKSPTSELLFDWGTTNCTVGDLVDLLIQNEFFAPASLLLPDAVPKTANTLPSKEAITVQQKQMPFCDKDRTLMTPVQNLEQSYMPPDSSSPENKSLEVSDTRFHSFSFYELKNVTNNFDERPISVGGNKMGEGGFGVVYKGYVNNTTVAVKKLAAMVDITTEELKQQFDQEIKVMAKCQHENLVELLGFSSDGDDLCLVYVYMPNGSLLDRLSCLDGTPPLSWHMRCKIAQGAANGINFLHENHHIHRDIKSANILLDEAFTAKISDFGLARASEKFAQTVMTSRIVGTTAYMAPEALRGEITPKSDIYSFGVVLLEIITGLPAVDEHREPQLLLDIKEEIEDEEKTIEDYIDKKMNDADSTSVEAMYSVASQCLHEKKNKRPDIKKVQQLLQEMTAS
Method: as §1

JNK3 = JNK3 (Homo sapiens, UniProt P53779)
Method: as §1

MEKK1 = MEKK1 (Homo sapiens, UniProt Q13233)
Method: as §1

MELK = MELK (Homo sapiens, UniProt Q14680)
Method: as §1

MKK1 = MKK1 (Homo sapiens, UniProt Q02750)
Method: as §1

MST3 = MST3 (Homo sapiens, UniProt Q9Y6E0)
Method: as §1

PAK2 = PAK2 (Homo sapiens, UniProt Q13177)
Method: as §1

PAK5 = PAK5 (Homo sapiens, UniProt Q9P286)
Method: as §1

PDGFRA = PDGFRA (Homo sapiens, UniProt P16234)
Method: as §1

PIM1 = PIM1 (Homo sapiens, UniProt P11309)
Method: as §1

PINK = PINK (Tribolium castaneum, UniProt D6WMX4)
Method: as §1

PKBb = PKBb (Homo sapiens, UniProt P31751)
Method: as §1

PKCγ = PKCγ (Homo sapiens, UniProt P05129)
Method: as §1

RSK1 = RSK1 (Homo sapiens, UniProt Q15418)
Method: as §1

TAO1 = TAO1 (Homo sapiens, UniProt Q7L7X3)
Method: as §1

TLK1 = TLK1 (Homo sapiens, UniProt Q9UKI8)
Method: as §1

TSSK1 = TSSK1 (Homo sapiens, UniProt Q9BXA7)
Method: as §1

TrkA = TrkA (Homo sapiens, UniProt P04629)
Method: as §1

YES1 = YES1 (Homo sapiens, UniProt P07947)
Method: as §1

[1] = 1 μM, cross-referenced with screen data of ref 37, read-out: activity remaining after treatment

MELK, sequence (Q14680 whole entry): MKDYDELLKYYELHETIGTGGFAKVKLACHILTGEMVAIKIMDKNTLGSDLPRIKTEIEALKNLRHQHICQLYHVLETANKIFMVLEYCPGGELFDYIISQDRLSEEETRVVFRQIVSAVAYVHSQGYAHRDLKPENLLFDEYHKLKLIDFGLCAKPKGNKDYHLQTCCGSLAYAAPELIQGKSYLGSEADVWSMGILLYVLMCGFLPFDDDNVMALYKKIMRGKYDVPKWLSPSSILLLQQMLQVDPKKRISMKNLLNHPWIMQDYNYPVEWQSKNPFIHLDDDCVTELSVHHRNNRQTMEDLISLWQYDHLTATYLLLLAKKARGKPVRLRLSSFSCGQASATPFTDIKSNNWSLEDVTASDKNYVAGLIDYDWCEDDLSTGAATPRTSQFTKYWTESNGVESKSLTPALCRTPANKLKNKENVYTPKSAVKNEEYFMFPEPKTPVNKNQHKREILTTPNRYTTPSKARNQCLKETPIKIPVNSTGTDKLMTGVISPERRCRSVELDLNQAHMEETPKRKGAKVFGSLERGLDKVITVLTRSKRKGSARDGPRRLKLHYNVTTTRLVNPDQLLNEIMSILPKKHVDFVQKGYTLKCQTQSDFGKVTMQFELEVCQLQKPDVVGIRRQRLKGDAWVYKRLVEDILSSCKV
IR, sequence (P06213 28-1382): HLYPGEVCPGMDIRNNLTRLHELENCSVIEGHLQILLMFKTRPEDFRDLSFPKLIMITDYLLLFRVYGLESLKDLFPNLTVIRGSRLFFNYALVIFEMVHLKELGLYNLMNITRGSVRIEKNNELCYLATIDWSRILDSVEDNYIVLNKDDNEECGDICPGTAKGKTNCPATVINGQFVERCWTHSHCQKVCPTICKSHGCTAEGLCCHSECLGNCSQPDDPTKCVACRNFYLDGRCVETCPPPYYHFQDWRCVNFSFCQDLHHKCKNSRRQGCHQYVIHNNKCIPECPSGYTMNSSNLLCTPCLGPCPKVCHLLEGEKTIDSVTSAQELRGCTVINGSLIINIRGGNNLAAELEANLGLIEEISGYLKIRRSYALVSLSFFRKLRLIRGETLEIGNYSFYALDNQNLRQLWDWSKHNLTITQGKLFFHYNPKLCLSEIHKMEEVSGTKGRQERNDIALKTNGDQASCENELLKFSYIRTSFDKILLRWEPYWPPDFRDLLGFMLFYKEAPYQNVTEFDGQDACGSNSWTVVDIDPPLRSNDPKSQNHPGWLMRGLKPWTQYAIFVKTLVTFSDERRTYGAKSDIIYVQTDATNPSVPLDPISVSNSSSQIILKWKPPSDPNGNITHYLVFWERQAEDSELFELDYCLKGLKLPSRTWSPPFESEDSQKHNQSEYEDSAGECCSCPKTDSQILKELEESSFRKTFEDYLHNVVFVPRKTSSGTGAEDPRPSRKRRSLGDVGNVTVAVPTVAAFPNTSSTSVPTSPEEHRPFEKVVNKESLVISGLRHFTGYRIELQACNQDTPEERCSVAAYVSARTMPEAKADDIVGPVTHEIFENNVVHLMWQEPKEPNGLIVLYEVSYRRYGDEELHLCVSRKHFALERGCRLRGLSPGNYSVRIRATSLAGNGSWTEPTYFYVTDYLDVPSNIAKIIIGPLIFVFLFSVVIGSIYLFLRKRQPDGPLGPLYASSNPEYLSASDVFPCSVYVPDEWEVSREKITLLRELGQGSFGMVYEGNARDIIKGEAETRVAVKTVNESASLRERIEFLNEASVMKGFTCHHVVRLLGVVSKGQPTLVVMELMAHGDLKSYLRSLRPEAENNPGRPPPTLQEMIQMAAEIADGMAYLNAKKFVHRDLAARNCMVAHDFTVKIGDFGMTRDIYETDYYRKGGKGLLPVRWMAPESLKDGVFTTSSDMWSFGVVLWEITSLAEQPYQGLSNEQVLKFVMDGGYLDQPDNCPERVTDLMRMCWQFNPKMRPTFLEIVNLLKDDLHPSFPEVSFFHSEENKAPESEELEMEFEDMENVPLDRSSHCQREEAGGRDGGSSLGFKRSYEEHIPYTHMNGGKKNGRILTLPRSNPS
RSK1, sequence (Q15418 whole entry): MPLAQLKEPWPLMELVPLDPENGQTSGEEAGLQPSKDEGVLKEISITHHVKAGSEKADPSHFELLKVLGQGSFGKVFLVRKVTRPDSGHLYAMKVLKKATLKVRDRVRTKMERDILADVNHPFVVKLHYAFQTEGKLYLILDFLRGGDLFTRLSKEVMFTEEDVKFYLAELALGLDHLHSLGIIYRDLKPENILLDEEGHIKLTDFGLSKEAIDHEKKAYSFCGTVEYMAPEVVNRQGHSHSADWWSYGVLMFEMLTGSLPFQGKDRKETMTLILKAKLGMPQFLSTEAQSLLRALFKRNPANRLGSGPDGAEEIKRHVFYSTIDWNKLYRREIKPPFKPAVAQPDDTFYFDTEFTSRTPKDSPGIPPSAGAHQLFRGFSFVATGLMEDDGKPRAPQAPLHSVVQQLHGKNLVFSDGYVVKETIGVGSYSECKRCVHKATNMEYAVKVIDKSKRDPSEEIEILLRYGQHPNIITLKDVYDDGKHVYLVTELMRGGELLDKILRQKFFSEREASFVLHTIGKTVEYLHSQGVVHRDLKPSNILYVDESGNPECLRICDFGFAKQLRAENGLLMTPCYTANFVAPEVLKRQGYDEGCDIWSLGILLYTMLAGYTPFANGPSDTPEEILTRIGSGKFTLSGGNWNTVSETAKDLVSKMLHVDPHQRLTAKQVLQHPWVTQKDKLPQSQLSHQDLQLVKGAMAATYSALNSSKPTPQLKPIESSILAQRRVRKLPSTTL
YES1, sequence (P07947 whole entry): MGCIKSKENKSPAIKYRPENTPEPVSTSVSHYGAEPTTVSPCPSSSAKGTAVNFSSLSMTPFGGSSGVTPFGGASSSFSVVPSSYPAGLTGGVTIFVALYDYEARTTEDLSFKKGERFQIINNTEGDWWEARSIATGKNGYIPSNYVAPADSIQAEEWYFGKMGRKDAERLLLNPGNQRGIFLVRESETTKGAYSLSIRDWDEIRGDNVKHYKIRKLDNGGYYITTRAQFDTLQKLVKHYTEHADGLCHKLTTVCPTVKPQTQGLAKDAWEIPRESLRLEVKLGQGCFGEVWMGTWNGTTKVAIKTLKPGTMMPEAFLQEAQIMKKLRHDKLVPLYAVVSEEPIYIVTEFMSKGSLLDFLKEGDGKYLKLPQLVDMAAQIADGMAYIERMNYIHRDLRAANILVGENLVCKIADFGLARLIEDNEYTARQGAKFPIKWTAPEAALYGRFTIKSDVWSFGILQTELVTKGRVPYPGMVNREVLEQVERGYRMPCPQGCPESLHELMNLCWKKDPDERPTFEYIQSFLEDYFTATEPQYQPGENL
JNK3, sequence (P53779 whole entry): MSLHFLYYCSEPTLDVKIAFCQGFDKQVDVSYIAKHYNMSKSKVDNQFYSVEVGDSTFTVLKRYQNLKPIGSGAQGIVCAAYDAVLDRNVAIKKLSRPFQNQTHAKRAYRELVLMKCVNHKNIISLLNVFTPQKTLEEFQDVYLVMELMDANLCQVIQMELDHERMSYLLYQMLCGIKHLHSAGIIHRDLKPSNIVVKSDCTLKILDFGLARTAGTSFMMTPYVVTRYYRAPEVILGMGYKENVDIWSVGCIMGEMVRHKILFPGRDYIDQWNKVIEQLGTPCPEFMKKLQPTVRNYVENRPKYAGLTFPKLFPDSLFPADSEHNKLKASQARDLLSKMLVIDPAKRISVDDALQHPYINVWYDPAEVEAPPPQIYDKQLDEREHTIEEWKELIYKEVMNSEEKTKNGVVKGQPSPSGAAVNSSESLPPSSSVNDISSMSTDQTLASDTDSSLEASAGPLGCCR
CHK1, sequence (O14757 whole entry): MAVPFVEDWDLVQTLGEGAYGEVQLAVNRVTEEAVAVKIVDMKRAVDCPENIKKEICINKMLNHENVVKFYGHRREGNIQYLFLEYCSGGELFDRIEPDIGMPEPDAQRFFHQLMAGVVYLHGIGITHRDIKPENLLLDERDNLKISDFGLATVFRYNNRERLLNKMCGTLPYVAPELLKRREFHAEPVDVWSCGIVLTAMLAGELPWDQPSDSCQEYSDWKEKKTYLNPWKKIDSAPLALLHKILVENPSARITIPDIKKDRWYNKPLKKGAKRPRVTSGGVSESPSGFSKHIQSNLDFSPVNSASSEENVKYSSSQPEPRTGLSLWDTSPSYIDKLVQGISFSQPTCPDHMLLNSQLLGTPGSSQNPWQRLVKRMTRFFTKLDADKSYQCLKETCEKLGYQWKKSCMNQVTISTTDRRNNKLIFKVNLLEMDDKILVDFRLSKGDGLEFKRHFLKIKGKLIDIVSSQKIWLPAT

CC1=C(C#N)C(c2ccc3c(c2)c(NC(=O)c2ccccc2C)nn3C)C(C#N)=C(C)N1 [BAY-974, N-[5-(3,5-dicyano-2,6-dimethyl-1,4-dihydropyridin-4-yl)-1-methylindazol-3-yl]-2-methylbenzamide]
remaining activity at 0.1 µM (ASK1): 83%
remaining activity at 0.1 µM (BTK): 94%
remaining activity at 0.1 µM (CDK2-Cyclin A): 96%
remaining activity at 0.1 µM (CHK1): 78%
remaining activity at 0.1 µM (CHK2): 87%
remaining activity at 0.1 µM (CK2): 79%
remaining activity at 0.1 µM (DYRK3): 83%
remaining activity at 0.1 µM (EF2K): 119%
remaining activity at 0.1 µM (EPH-A2): 109%
remaining activity at 0.1 µM (EPH-A4): 81%
remaining activity at 0.1 µM (EPH-B1): 107%
remaining activity at 0.1 µM (ERK5): 70%
remaining activity at 0.1 µM (FGF-R1): 91%
remaining activity at 0.1 µM (GSK3b): 93%
remaining activity at 0.1 µM (HIPK3): 99%
remaining activity at 0.1 µM (IR): 81%
remaining activity at 0.1 µM (IRAK4): 92%
remaining activity at 0.1 µM (JNK3): 104%
remaining activity at 0.1 µM (MEKK1): 99%
remaining activity at 0.1 µM (MELK): 90%
remaining activity at 0.1 µM (MKK1): 100%
remaining activity at 0.1 µM (MST3): 89%
remaining activity at 0.1 µM (PAK2): 88%
remaining activity at 0.1 µM (PAK5): 82%
remaining activity at 0.1 µM (PDGFRA): 86%
remaining activity at 0.1 µM (PIM1): 82%
remaining activity at 0.1 µM (PINK): 95%
remaining activity at 0.1 µM (PKBb): 99%
remaining activity at 0.1 µM (PKCγ): 115%
remaining activity at 0.1 µM (RSK1; 0.1 μM): 66%
remaining activity at 0.1 µM (TAO1): 88%
remaining activity at 0.1 µM (TLK1): 100%
remaining activity at 0.1 µM (TSSK1): 55%
remaining activity at 0.1 µM (TrkA): 97%
inhibition at 0.1 µM (YES1): 55 to 90%
remaining activity at 0.1 µM (YES1): ≤ 50%

CCc1ccccc1C(=O)Nc1n[nH]c2c(C)c(F)c(C3C(C#N)=C(C)N(C)C(C)=C3C#N)cc12 [BAY-3827, N-[5-(3,5-dicyano-1,2,6-trimethyl-4H-pyridin-4-yl)-6-fluoro-7-methyl-1H-indazol-3-yl]-2-ethylbenzamide]
remaining activity at 0.1 µM (ASK1): 95%
remaining activity at 0.1 µM (BTK): 85%
remaining activity at 0.1 µM (CDK2-Cyclin A): 99%
remaining activity at 1 µM (CDK2-Cyclin A; 1 μM, CDK2, cross-referenced with screen data of ref 37, read-out: activity remaining after treatment): ≥ 99%
remaining activity at 0.1 µM (CHK1): 66%
remaining activity at 0.1 µM (CHK2): 93%
remaining activity at 0.1 µM (CK2): 85%
remaining activity at 0.1 µM (DYRK3): 97%
remaining activity at 0.1 µM (EF2K): 91%
remaining activity at 0.1 µM (EPH-A2): 114%
remaining activity at 0.1 µM (EPH-A4): 94%
remaining activity at 0.1 µM (EPH-B1): 91%
remaining activity at 0.1 µM (ERK5): 80%
remaining activity at 0.1 µM (FGF-R1): 89%
remaining activity at 0.1 µM (GSK3b): 74%
remaining activity at 0.1 µM (HIPK3): 77%
remaining activity at 0.1 µM (IR): 102%
remaining activity at 1 µM (IR; 1 μM, INSR, cross-referenced with screen data of ref 37, read-out: activity remaining after treatment): ≥ 99%
remaining activity at 0.1 µM (IRAK4): 111%
remaining activity at 1 µM (IRAK4; [1]): ≥ 99%
remaining activity at 0.1 µM (JNK3): 88%
remaining activity at 0.1 µM (MEKK1): 97%
remaining activity at 0.1 µM (MELK): 81%
remaining activity at 1 µM (MELK; [1]): ≤ 50%
remaining activity at 0.1 µM (MKK1): 100%
remaining activity at 0.1 µM (MST3): ≤ 50%
remaining activity at 0.1 µM (PAK2): 88%
remaining activity at 0.1 µM (PAK5): 100%
remaining activity at 0.1 µM (PDGFRA): 82%
remaining activity at 0.1 µM (PIM1): 86%
remaining activity at 0.1 µM (PINK): 90%
remaining activity at 0.1 µM (PKBb): 93%
remaining activity at 0.1 µM (PKCγ): 94%
inhibition at 0.1 µM (RSK1; 0.1 μM): 80 to 85%
remaining activity at 1 µM (RSK1; [1]): ≤ 50%
remaining activity at 0.1 µM (TAO1): 94%
remaining activity at 0.1 µM (TLK1): 118%
remaining activity at 0.1 µM (TSSK1): 88%
remaining activity at 0.1 µM (TrkA): 87%
remaining activity at 0.1 µM (YES1): 98%
